Key:
Experiment in all cases: whole-cell patch clamp
Format in all cases: cell-based
Settings in all cases: agonist; pH 7.4
homomeric α2 GlyR = test system: homomeric α2 GlyR
heteromeric α3β GlyR = test system: heteromeric α3β GlyR
heteromeric α2β GlyR = test system: heteromeric α2β GlyR
homomeric α3 GlyR = test system: homomeric α3 GlyR

Compound `NCC(=O)O` [glycine] has an EC50 (homomeric α2 GlyR) of 99 µM, an EC50 (heteromeric α3β GlyR) of 395 µM and an EC50 (heteromeric α2β GlyR) of 91 µM. For the same compound, the EC50 (homomeric α3 GlyR) was 166 µM.

— doi:10.1101/454710v1 (biorxiv, 2018)
